Laboratory results reported in US20240059691A1 (KALVISTA PHARMACEUTICALS LIMITED, priority 2020, published 2024).
pIC50: −log10 of the molar value.

Experiments:
Type in all cases: biochemical
KLK1 = KLK1 (Homo sapiens (Human), UniProt P06870); assay: Determination of related protease inhibition: KLK1 (fluorogenic substrate at Km); conditions: 25° C.
In short: (§1)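 Human enzyme incubated with test compound over a concentration range and a fluorogenic substrate at its Km concentration. Liberated fluorescence monitored over 5 min at 25 °C; linear rate per minute expressed as % of uninhibited activity, and IC50 taken as the concentration giving 50% inhibition.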

Human Factor XIIa = Human Factor XIIa (Homo sapiens (Human), UniProt P00748); assay: Determination of FXIIa inhibition (fluorogenic substrate H-DPro-Phe-Arg-AFC, IC50 assay); conditions: substrate H-DPro-Phe-Arg-AFC at Km, 25° C.; class scale A-G
Human Factor XIIa, sequence (P00748 373-615): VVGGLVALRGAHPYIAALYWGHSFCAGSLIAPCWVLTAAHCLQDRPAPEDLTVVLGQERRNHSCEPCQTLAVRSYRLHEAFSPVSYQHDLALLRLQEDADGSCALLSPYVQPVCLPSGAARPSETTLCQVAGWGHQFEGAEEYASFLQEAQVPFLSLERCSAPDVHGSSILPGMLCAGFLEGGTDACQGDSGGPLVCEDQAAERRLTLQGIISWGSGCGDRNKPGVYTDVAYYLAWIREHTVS
In short: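 Human FXIIa incubated at 25° C with fluorogenic substrate H-DPro-Phe-Arg-AFC at its Km concentration and varying compound concentrations. Fluorescence release monitored over 5 min at 25° C; linear rate expressed as % of uninhibited activity to derive IC50.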

Thrombin = Thrombin (Homo sapiens (Human), UniProt P00734); assay: Determination of related protease inhibition: Thrombin (fluorogenic substrate at Km); conditions: 25° C.
Experimental: Determination of Related Protease Inhibition
In vitro inhibition of related proteases was determined using an ([…] assay based on standard literature methods (see e.g. Shori et al., Biochem. Pharmacol., 1992, 43, 1209; Bouckaert et al., European Journal of Medicinal Chemistry 110 (2016) 181). Human serine protease enzymes Plasma Kallikrein, KLK1, FXa, Plasmin, Thrombin and Trypsin were assayed for enzymatic activity using an appropriate fluorogenic substrate at Km concentration, FXIa at fixed substrate concentration of 100 μM, and various concentrations of the test compound. Protease activity was measured by monitoring the accumulation of liberated fluorescence from the substrate over […]. The linear rate of fluorescence increase per minute was expressed as percentage (%) activity. IC50 values were calculated as the concentration of inhibitor giving 50% inhibition of the uninhibited enzyme activity (100%).

FXa = FXa (Homo sapiens (Human), UniProt P00742); assay: Determination of related protease inhibition: FXa (fluorogenic substrate at Km); conditions: 25° C.
FXa, sequence (P00742 235-488): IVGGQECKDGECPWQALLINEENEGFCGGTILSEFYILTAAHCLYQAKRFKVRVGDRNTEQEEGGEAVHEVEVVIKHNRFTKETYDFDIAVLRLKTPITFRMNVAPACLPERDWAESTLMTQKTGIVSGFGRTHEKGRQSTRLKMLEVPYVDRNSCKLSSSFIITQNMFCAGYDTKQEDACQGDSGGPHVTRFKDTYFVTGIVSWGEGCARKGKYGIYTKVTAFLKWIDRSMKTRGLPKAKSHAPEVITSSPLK
FXa, sequence (P00742 41-179 partner): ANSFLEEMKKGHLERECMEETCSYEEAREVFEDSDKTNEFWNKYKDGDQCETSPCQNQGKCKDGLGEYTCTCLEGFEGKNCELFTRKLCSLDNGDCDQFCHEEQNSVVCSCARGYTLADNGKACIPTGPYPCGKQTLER
In short: as §1

Plasma Kallikrein = Plasma Kallikrein (Homo sapiens (Human), UniProt P03952); assay: Determination of related protease inhibition: Plasma Kallikrein (fluorogenic substrate at Km); conditions: 25° C., read-out: IC50 (human PKal)
Plasma Kallikrein, sequence (P03952 391-638): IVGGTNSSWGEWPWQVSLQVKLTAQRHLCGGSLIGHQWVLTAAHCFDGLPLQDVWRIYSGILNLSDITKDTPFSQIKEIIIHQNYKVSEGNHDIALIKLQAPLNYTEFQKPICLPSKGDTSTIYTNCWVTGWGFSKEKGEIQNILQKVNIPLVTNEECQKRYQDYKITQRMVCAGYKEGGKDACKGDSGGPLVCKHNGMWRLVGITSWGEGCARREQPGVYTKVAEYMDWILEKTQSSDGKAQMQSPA
Plasma Kallikrein, sequence (P03952 20-390 partner): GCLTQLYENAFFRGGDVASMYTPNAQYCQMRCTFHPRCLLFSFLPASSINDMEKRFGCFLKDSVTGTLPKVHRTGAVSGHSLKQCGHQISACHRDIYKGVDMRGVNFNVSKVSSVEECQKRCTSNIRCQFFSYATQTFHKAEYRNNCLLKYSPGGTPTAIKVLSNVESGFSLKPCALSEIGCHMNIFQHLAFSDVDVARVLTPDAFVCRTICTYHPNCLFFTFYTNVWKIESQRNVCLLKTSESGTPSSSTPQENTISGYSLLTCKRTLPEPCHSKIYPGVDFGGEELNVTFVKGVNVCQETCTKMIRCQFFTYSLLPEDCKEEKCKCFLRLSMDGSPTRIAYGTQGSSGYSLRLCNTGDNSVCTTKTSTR
In short: as §1

KLK1, sequence (P06870 25-262): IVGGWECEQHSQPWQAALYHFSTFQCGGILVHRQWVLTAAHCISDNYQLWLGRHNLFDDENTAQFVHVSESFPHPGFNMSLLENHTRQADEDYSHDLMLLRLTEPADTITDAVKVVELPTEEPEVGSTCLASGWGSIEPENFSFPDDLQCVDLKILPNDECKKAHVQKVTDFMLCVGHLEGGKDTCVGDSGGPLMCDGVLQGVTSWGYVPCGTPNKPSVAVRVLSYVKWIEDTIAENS

SMILES	pIC50 (KLK1)	pIC50 (Human Factor XIIa)	pIC50 (Thrombin)	pIC50 (FXa)	pIC50 (Plasma Kallikrein)
CN1CCC(CNc2cc(CNc3ccc4c(N)nccc4c3)ccn2)CC1 [Example 4284, 6-N-[(2-{[(1-methylpiperidin-4-yl)methyl]amino}pyridin-4-yl)methyl]isoquinoline-1,6-diamine]	5.52 to 6.00	6.52 to 7.00	4.40 to 5.00	6.00 to 6.52	4.40 to 5.00
CN1CCC(CNc2cc(CNc3ccc4c(N)ncc(Cl)c4c3)ccn2)CC1 [Example 4285, 4-Chloro-N6-((2-(((1-methylpiperidin-4-yl)methyl)amino)pyridin-4-yl)methyl)isoquinoline-1,6-diamine]	5.00 to 5.52	7.00 to 8.00	< 4.40	4.40 to 5.00	< 4.40
CN1CCC(CNc2cc(CNc3cccc4c(N)nccc34)ccn2)CC1 [Example 4286, N5-((2-(((1-methylpiperidin-4-yl)methyl)amino)pyridin-4-yl)methyl)isoquinoline-1,5-diamine]	5.00 to 5.52	6.00 to 6.52	< 4.40	< 4.40	4.40 to 5.00
CN1CCC(NC(=O)c2cc(CNc3cccc4c(N)nccc34)ccn2)CC1 [Example 4289, 4-(((1-aminoisoquinolin-5-yl)amino)methyl)-N-(1-methylpiperidin-4-yl)picolinamide]	4.40 to 5.00	6.00 to 6.52	< 4.40	< 4.40	< 4.40
CC(C)N1C[C@H]2C[C@@H]1CN2Cc1cc(CNc2cccc3c(N)nccc23)ccn1 [Example 4294, 5-N-[(2-{[(1R,4R)-5-isopropyl-2,5-diazabicyclo[2.2.1]heptan-2-yl]methyl}pyridin-4-yl)methyl]isoquinoline-1,5-diamine]	4.40 to 5.00	4.40 to 5.00	< 4.40	< 4.40	< 4.40
Cc1cn2c(n1)CC(COc1cc(CNc3cccc4c(N)nccc34)ccn1)CC2 (stereo not shown) [Example 4319, N5-[[2-[(2-methyl-5,6,7,8-tetrahydroimidazo[1,2-a]pyridin-7-yl)methoxy]-4-pyridyl]methyl]isoquinoline-1,5-diamine]	5.00 to 5.52	6.52 to 7.00	< 4.40	4.40 to 5.00	5.00 to 5.52
Nc1nccc2cc(NCc3ccnc(-c4cccc(CN5CCCC5)c4)c3)ccc12 [Example 4434, 6-N-({2-[3-(pyrrolidin-1-ylmethyl)phenyl]pyridin-4-yl}methyl)isoquinoline-1,6-diamine]	5.00 to 5.52	6.52 to 7.00	< 4.40	5.00 to 5.52	< 4.40
CC(C)N1CCC(CN(CCCO)C(=O)c2cccc(CNc3cccc4c(N)nccc34)c2)CC1 [Example 4441, 3-{[(1-aminoisoquinolin-5-yl)amino]methyl}-N-(3-hydroxypropyl)-N-[(1-isopropylpiperidin-4-yl)methyl]benzamide]	5.52 to 6.00	6.52 to 7.00	< 4.40	< 4.40	4.40 to 5.00
Cc1cc(NCc2ccnc(OCC3CCN(C)CC3)c2)cc2ccncc12 [Example 4464, 8-methyl-N-((2-((1-methylpiperidin-4-yl)methoxy)pyridin-4-yl)methyl)isoquinolin-6-amine]	5.00 to 5.52	5.52 to 6.00	< 5.40	< 4.00	< 4.70
Nc1nccc2c(NCc3ccnc(OCC4CCn5c(nnc5C(F)F)C4)c3)cccc12 (stereo not shown) [Example 4467, N5-((2-((3-(difluoromethyl)-5,6,7,8-tetrahydro-[1,2,4]triazolo[4,3-a]pyridin-7-yl)methoxy)pyridin-4-yl)methyl)isoquinoline-1,5-diamine]	5.00 to 5.52	6.52 to 7.00	4.40 to 5.00	4.40 to 5.00	< 4.40
CN1CC(C2CN(c3cc(CNc4ccc5c(N)nccc5c4)ccn3)C2)C1 [Example 5435, N6-((2-(1′-methyl-[3,3′-biazetidin]-1-yl)pyridin-4-yl)methyl)isoquinoline-1,6-diamine]	5.52 to 6.00	5.52 to 6.00	5.00 to 5.52	5.00 to 5.52	4.40 to 5.00
